Test results from paper PMC8742467, “Therapeutical interference with the epigenetic landscape of germ cell tumors: a comparative drug study and new mechanistical insights” (Clinical Epigenetics, 2022).

Key:
[1] = system: DNA methylation (5mC, 5hmC) in 2102EP cells; experiment: DNA slot blot (5mC, 5hmC); format: cell-based, Human; conditions: 24 h, solvent control set to 100%
Experimental: Purity of DNA was verified using NanoDrop 260/280 ratio and agarose gel electrophoresis. DNA was diluted in H2O to 200 ng, 100 ng and 50 ng in 200 µl per slot. Slot-Blotter device (Carl Roth GmbH + Co KG, Karlsruhe, Germany) was assembled as according to the manual. DNA was blotted onto a positively charged nylon membrane (Carl Roth GmbH + Co KG, Karlsruhe, Germany) using vacuum application. Three identical membranes were prepared. The membranes were air-dried for 15—20 min and UV-crosslinked (20 s (s), 1200 mJ/cm^2). One membrane was stained with methylene blue (0.02% methylene blue (Merck Millipore, Darmstadt, Germany) in 0.3 M sodium acetate (pH 5.2)) to validate DNA loading across the samples. The remaining two membranes were blocked in 5% milk powder in PBST for 1 h at RT. Membranes were incubated with 5mC or 5hmC antibody overnight at 4 °C. After washing, membranes were incubated with secondary antibody for 2 h at RT. Signals were detected using the ChemiDoc Imaging Systems (Bio-Rad Laboratories, Feldkirchen, Germany).

[2] = system: SE-R (cisplatin-resistant seminoma subclone); experiment: XTT cell viability assay, mean per entity SE-R; format: cell-based; conditions: Homo sapiens, after 48 h
Experimental: (§1) The […] (XTT) assays were performed as described previously. In summary, for GCT and fibroblast cell lines 5 × 10^3 cells (3 × 10^3 for UC, PCa and RCC cell lines) per 96-well were seeded and different drug concentrations (see Additional file 2: Fig. S2, Additional file 3: Fig. S3) or corresponding solvents were added to the cells the following day. For drug details see Additional file 12: Table S2 C. Each condition was analyzed in four technical replicates and EC50 values were calculated by GraphPad Prism v8.

SE (seminoma) cell lines = experiment: XTT cell viability assay, mean per entity SE; format: cell-based; conditions: Homo sapiens, after 48 h
Experimental: as §1

GCT cell lines = experiment: XTT cell viability assay, GCT cell lines (pre-screen / summary); format: cell-based, Human
How it was run: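 Seeding density of 5 × 10^3 cells per well applied to both tumour and fibroblast lines; compounds or vehicle followed after overnight attachment. Metabolic activity by XTT, four technical repeats, EC50 calculated.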

2102EP (EC) = experiment: XTT cell viability assay, 2102EP; format: cell-based; conditions: Homo sapiens, 48 h, read-out: EC50 colour/symbol code, EC 2102EP
Experimental: as §1

JAR (CC) = experiment: XTT cell viability assay, JAR; format: cell-based; conditions: Homo sapiens, after 48 h, n = 4, read-out: EC50 colour/symbol code, CC JAR
Experimental: as §1

[3] = system: PRKCB, PRKD1, HDAC9, CSF1R expression in GCT cells; experiment: Quantitative RT-PCR of co-treatment target genes; format: cell-based, Human; conditions: 0.2 × EC50, 0.5 × EC50 and EC50
Experimental: Quantitative RT-PCR (qRT-PCR) was performed as described previously. A total amount of 1 µg of RNA was in-vitro transcribed into cDNA by using Oligo(dT)18 Primer and Maxima H Minus Reverse Transcriptase (200 U/µL) (all Thermo Fisher Scientific). qRT-PCR runs were performed on a 384-well C1000 cycler (BioRad, Feldkirchen, Germany). All samples were analyzed in technical triplicates using 7.34 ng of cDNA for each replicate and the SYBR-green-based Luna Universal qPCR Master Mix (New England Biolabs, Frankfurt am Main, Germany). At the end of each run, melting curve analyses were performed. Oligonucleotide sequences are given in the supplement (Additional file 12: Table S2 B).

[4] = system: EC-R (cisplatin-resistant embryonal carcinoma subclones); experiment: XTT cell viability assay, mean per entity EC-R; format: cell-based; conditions: Homo sapiens, after 48 h
Experimental: as §1

[5] = system: histone modifications in 2102EP cells; experiment: Mass spectrometry analysis of histone modifications (Mod Spec); format: cell-based, Human
How it was run: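 2102EP cells were treated for 16 h with EC50 concentrations of Quisinostat, JIB-04, Chaetocin, MZ-1, LP99, PRT4165 or GSK343, with DMSO as solvent control. After trypsin harvest, histones were extracted and analysed by mass spectrometry. Raw data were converted to z-scores.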

[6] = 2102EP cells, Mod Spec raw data
[7] = 2102EP, EC50, 16 h, vs solvent control

CN1C(=O)[C@@]23C[C@]4([C@]56C[C@@]78SS[C@@](CO)(C(=O)N7[C@H]5Nc5ccccc56)N(C)C8=O)c5ccccc5N[C@@H]4N2C(=O)[C@]1(CO)SS3 [Chaetocin]
5mC levels compared to solvent control [1]: 85%
EC50 [2]: 0.217 µM
EC50 (SE (seminoma) cell lines): 0.122 µM
EC50 (GCT cell lines; Homo sapiens, GCT, cell line not stated, read-out: EC50 concentration used for low dose qRT-PCR): 0.173 µM
EC50 / effective concentration in words (GCT cell lines; first pre-screen, SE and EC proxies TCam-2 and 2102EP, XTT): nanomolar range
EC50 (2102EP (EC)): < 1 µM
EC50 (JAR (CC)): < 1 µM
PRKD1 expression (qRT-PCR) [3]: upregulation
EC50 [4]: 0.161 µM
H1.4: K25AC, % of peptide pool [5, 6]: 0.02988%
H1.4: K25ME1, % of peptide pool [5, 6]: 2.019%
H1.4: K25ME2, % of peptide pool [5, 6]: 0.1186%
H1.4: K25ME3, % of peptide pool [5, 6]: 0.02061%
H1.4: K25UN, % of peptide pool [5, 6]: 97.812%
H2A1: K13AC, % of peptide pool [5, 6]: 0.0146%
H2A1: K13UN, % of peptide pool [5, 6]: 99.9854%
H2A1: K15AC, % of peptide pool [5, 6]: 0.01159%
H2A1: K15UB, % of peptide pool [5, 6]: 0%
H2A1: K15UN, % of peptide pool [5, 6]: 99.9884%
H2A3: K13AC, % of peptide pool [5, 6]: 0.04893%
H2A3: K13UN, % of peptide pool [5, 6]: 99.9511%
H2A3: K15AC, % of peptide pool [5, 6]: 0.07659%
H2A3: K15UB, % of peptide pool [5, 6]: 0%
H2A3: K15UN, % of peptide pool [5, 6]: 99.9234%
H2A: K5AC, % of peptide pool [5, 6]: 14.3188%
H2A: K5UN, % of peptide pool [5, 6]: 85.6812%
H2A: K9AC, % of peptide pool [5, 6]: 1.675%
H2A: K9UN, % of peptide pool [5, 6]: 98.3248%
H2A: K36AC, % of peptide pool [5, 6]: 0.05938%
H2A: K36UN, % of peptide pool [5, 6]: 99.9406%
H3: K9AC, % of peptide pool [5, 6]: 0.8662%
H3: K9ME1, % of peptide pool [5, 6]: 34.1794%
H3: K9ME2, % of peptide pool [5, 6]: 24.6408%
H3: K9ME3, % of peptide pool [5, 6]: 2.426%
H3: K9UN, % of peptide pool [5, 6]: 37.8878%
H3: K14AC, % of peptide pool [5, 6]: 29.886%
H3: K14UN, % of peptide pool [5, 6]: 70.114%
H3: K18AC, % of peptide pool [5, 6]: 12.8748%
H3: K18ME1, % of peptide pool [5, 6]: 0.1543%
H3: K18UN, % of peptide pool [5, 6]: 86.9709%
H3: K23AC, % of peptide pool [5, 6]: 19.2205%
H3: K23ME1, % of peptide pool [5, 6]: 0.03585%
H3: K23UN, % of peptide pool [5, 6]: 80.7437%
H3: K56AC, % of peptide pool [5, 6]: 0.2394%
H3: K56ME1, % of peptide pool [5, 6]: 0.9888%
H3: K56UN, % of peptide pool [5, 6]: 98.7718%
H3: K64AC, % of peptide pool [5, 6]: 0.03741%
H3: K64UN, % of peptide pool [5, 6]: 99.9626%
H3: K79AC, % of peptide pool [5, 6]: 1.813%
H3: K79ME1, % of peptide pool [5, 6]: 15.4225%
H3: K79ME2, % of peptide pool [5, 6]: 5.182%
H3: K79ME3, % of peptide pool [5, 6]: 17.8629%
H3: K79UN, % of peptide pool [5, 6]: 59.719%
H3: K122AC, % of peptide pool [5, 6]: 0.1813%
H3: K122UN, % of peptide pool [5, 6]: 99.8187%
H3: Q19ME1, % of peptide pool [5, 6]: 0.03077%
H3: Q19UN, % of peptide pool [5, 6]: 99.9692%
H3: Q55ME1, % of peptide pool [5, 6]: 0.2687%
H3: Q55UN, % of peptide pool [5, 6]: 99.7313%
H3: R42ME2, % of peptide pool [5, 6]: 2.246%
H3: R42UN, % of peptide pool [5, 6]: 97.7541%
H3: R49ME2, % of peptide pool [5, 6]: 6.84%
H3: R49UN, % of peptide pool [5, 6]: 93.1597%
H3R2UN: K4AC, % of peptide pool [5, 6]: 0.1823%
H3R2UN: K4ME1, % of peptide pool [5, 6]: 17.5028%
H3R2UN: K4ME2, % of peptide pool [5, 6]: 0.3386%
H3R2UN: K4ME3, % of peptide pool [5, 6]: 0.1482%
H3R2UN: K4UN, % of peptide pool [5, 6]: 81.8281%
H3R2UN: Q5ME1, % of peptide pool [5, 6]: 0.09687%
H3R2UN: Q5UN, % of peptide pool [5, 6]: 99.9031%
H3.1: K27AC, % of peptide pool [5, 6]: 2.462%
H3.1: K27ME1, % of peptide pool [5, 6]: 46.5828%
H3.1: K27ME2, % of peptide pool [5, 6]: 19.949%
H3.1: K27ME3, % of peptide pool [5, 6]: 2.906%
H3.1: K27UN, % of peptide pool [5, 6]: 28.0999%
H3.1: K36AC, % of peptide pool [5, 6]: 0.3566%
H3.1: K36ME1, % of peptide pool [5, 6]: 14.5986%
H3.1: K36ME2, % of peptide pool [5, 6]: 44.4208%
H3.1: K36ME3, % of peptide pool [5, 6]: 21.3142%
H3.1: K36UN, % of peptide pool [5, 6]: 19.3097%
H3.3: K27AC, % of peptide pool [5, 6]: 5.581%
H3.3: K27M, % of peptide pool [5, 6]: 0%
H3.3: K27ME1, % of peptide pool [5, 6]: 45.9713%
H3.3: K27ME2, % of peptide pool [5, 6]: 14.9979%
H3.3: K27ME3, % of peptide pool [5, 6]: 5.393%
H3.3: K27UN, % of peptide pool [5, 6]: 28.0564%
H3.3: K36AC, % of peptide pool [5, 6]: 3.238%
H3.3: K36ME1, % of peptide pool [5, 6]: 13.4078%
H3.3: K36ME2, % of peptide pool [5, 6]: 46.3675%
H3.3: K36ME3, % of peptide pool [5, 6]: 22.3154%
H3.3: K36UN, % of peptide pool [5, 6]: 14.6709%
H4: K5AC, % of peptide pool [5, 6]: 7.567%
H4: K5UN, % of peptide pool [5, 6]: 92.4335%
H4: K8AC, % of peptide pool [5, 6]: 11.8437%
H4: K8UN, % of peptide pool [5, 6]: 88.1563%
H4: K12AC, % of peptide pool ([5]; 2102EP cells, Mod Spec raw data, histone H4 K12 acetylated): 6.89 % of peptide pool
H4: K12UN, % of peptide pool ([5]; 2102EP cells, Mod Spec raw data, histone H4 K12 unmodified): 93.1103 % of peptide pool
H4: K16AC, % of peptide pool ([5]; 2102EP cells, Mod Spec raw data, histone H4 K16 acetylated): 48.815 % of peptide pool
H4: K16UN, % of peptide pool ([5]; 2102EP cells, Mod Spec raw data, histone H4 K16 unmodified): 51.185 % of peptide pool
H4: K20AC, % of peptide pool ([5]; 2102EP cells, Mod Spec raw data, histone H4 K20 acetylated): 23.7533 % of peptide pool
H4: K20ME2, % of peptide pool ([5]; 2102EP cells, Mod Spec raw data, histone H4 K20 dimethylated): 42.9015 % of peptide pool
H4: K20ME1, % of peptide pool ([5]; 2102EP cells, Mod Spec raw data, histone H4 K20 monomethylated): 5.498 % of peptide pool
H4: K20ME3, % of peptide pool ([5]; 2102EP cells, Mod Spec raw data, histone H4 K20 trimethylated): 1.56 % of peptide pool
H4: K20UN, % of peptide pool ([5]; 2102EP cells, Mod Spec raw data, histone H4 K20 unmodified): 26.2873 % of peptide pool
change of histone modifications of the expected mode of action (Mod Spec) [5, 7]: reduction of H3K9me2/me3
off-target changes of histone modifications (Mod Spec) [5, 7]: increase of H4K20ac
